Earlier results, collected in article PMC8480965 (The Journal of General Physiology, 2021).

Columns and labels:
Kv2.1 [1] = conditions: ref Tilley et al., 2019
Kv2.1 [2] = conditions: sphingomyelin converted to ceramide-1-phosphate; ref Milescu et al., 2009
Kv2.1 [3] = conditions: independent binding to each voltage sensor; ref Lee et al., 2003

Substance	V1/2 of gating charge–voltage (QV) relation (Kv2.1 [1]; Kv2.1 in saturating GxTX) [mV]	z of gating charge–voltage (QV) relation (Kv2.1 [1]; Kv2.1 in saturating GxTX)	stabilization of voltage sensor in resting conformation with GxTX bound (Kv2.1 [1]; estimated previously)	deactivation rate of voltage sensors bound by GxTX (Kv2.1 [1])	mode of action on Kv2.1 (Kv2.1 [1])	enhancement of GxTX affinity for Kv2.1 by sphingomyelinase D (Kv2.1 [2])	inhibition of total gating charge movement per voltage sensor bound (Kv2.1 [3]) [%]
guangxitoxin-1E (EGECGGFWWKCGSGKPACCPKYVCSPKWGLCNFPMP; UniProt P84835 1-36, looked up) [GxTX]	47 ± 1	1.6 ± 0.1 e0	5,400 fold	faster deactivation rate	partial inverse agonist of Kv2.1	fourfold	–
Hanatoxin	–	–	–	–	–	–	~25
